{"source": "patent US20030153081A1", "about": "“Viral core protein-cationic lipid-nucleic acid-delivery complexes” (priority 1999, published 2003)", "key": {"[1]": {"system": "differentiated ND7 cells", "experiment": "X-gal histochemistry, transfection of differentiated ND7 cells", "type": "cell-based, rat/mouse", "protocol": "ND7 cells were plated in a 24 well culture plate at a density of 4×10^4 cells per well in normal growth media (+serum). Twenty-four hours later the media was replaced with differentiation media and the cells were grown for an additional 24 hrs. Three different differentiation medias were used; serum-free (−serum), normal growth media plus 1 mM cAMP (cAMP), or reduced serum (0.5%) plus 1 mM cAMP and 50 ng/ml nerve growth factor (NGF). The cells were then transfected with pCMVb complexed with either DC-Chol/DOPE alone or Mu1 plus DC-Chol/DOPE. Forty-eight hours later the cells were fixed and processed for X-Gal histochemistry and the percentage of positive cells determined.\nDifferentiation of ND7 cells was carried out using three previously described methods ^28, 29. ND7 cells were seeded in NGM at a density of 4×10^4 cells per well in a 24 well culture dish (Nunc). Twenty four hours later the media was replaced with either: a) NGM supplemented with 1 mM adenosine 3′:5′-cyclic monophosphate (cAMP; Sigma), or b) serum-free differentiation media (50% Hams F12, 50% DMEM, 5 μg/mL Transterrin, 250 ng/mL Insulin, 0.3 μM sodium selenite), or c) low serum nerve growth factor (NGF) media (L-15 supplemented with 2 mM glutamine, 4 g/L glucose, 4 g/L sodium bicarbonate, 10 u/mL penicillin, […] streptomycin, 0.5% FCS, 1 mM cAMP, 50 ng/mL NGF (Alomone Labs)). Differentiated ND7 cells were grown in appropriate media for 24 hrs at 37° C., 5% CO2 prior to transfection.\nWe also examined the ability of Mu1 to improved cationic liposome-mediated transfection in differentiated ND7s. The ND7 cell line is derived from a fusion of primary rat dorsal root ganglia (DRG) neurons and the mouse neuroblastoma N18Tg2 ^28. ND7 cells can be differentiated in a variety of manners including the withdrawal of serum, cAMP administration or exposure to reduced serum plus cAMP and nerve growth factor. Differentiation of ND7s leads to the expression of cellular properties associated with their parental nociceptive sensory neurons including a reduction in cell division and the onset of neurite outgrowth. ND7 cells were seeded in 24 well culture plates and 24 hours later differentiated. Fifteen to 20 hours following the onset of differentiation, they were transfected as above. Fifteen to 20 hours following transfection, cells were fixed and processed for X-gal histochemistry. Consistent with previous observations, transfection efficiencies varied greatly between the three differentiated groups. […] In all three conditions, however, inclusion of Mu1 polypeptide in the transfection complex improved the transduction of differentiated ND7 cells. […] The greatest improvement in efficiencies was seen, however, in the group differentiated by serum withdrawal. Here, increases of greater than 10 fold were observed."}, "[2]": {"system": "ND7 cells", "experiment": "X-gal histochemistry cell counts, undifferentiated ND7 cells", "type": "cell-based, rat/mouse", "protocol": "ND7 neurons were plated in 24 well culture dishes at a density of 4×10^4 cells/well and allowed to grow for 24 hrs. The undifferentiated ND7 neurons were then transfected with either pCMVb alone (A), pCMVb complexed with DC-Chol/DOPE (1/3, w/w) (B) or with pCMVb complexed with Mu1 and DC-Chol/DOPE (1/12/6) (C). Forty-eight hours later the cells were fixed and processed for histochemical detection of X-Gal.\nDNA and liposomes were combined by the addition of 400 μL serum-free differentiation media and gentle shaking. The DNA: liposome mixture was incubated at room temperature for 20 to 30 minutes before being applied to the cells. The DNA/liposome mixture was then applied to the cells and incubated at 37° C., 5% CO2 for 2 hours after which this media was replaced with complete media Twenty four to 48 hours later the cells were fixed and processed for X-gal histochemistry as described ^31 or harvested for β-galactosidase enzyme assays (Promega Corp.).\nCell counts were performed under ×40 magnification using a Nikon Diaphot inverted microscope. Each transfection was repeated at least three times and at least three separate counts were made for each well.\nThe β-galactosidase reporter gene assay provides a measure of the overall level of β-galactosidase produced, but gives no information regarding the number of cells transfected. For this reason, we also performed cell counts on transfected ND7 cells. Cells were seeded at a density of 4×10^4 in 24 well culture plates. After 24 hours the cells were washed briefly in serum-free media and transfected with pCMVβ complexed to DC-Chol/DOPE and Mu1 peptide. The ratios used were those found to be optimal in the reporter gene assay, 1:12:6, pCMVβ:Mu1:DC-Chol/DOPE. Using these ratios, we found a 6-fold increase in the number of β galactosidase positive cells (FIGS. 3 & 6)."}, "[3]": {"system": "Swiss 3T3 cells", "experiment": "β-galactosidase assay, Mu1 vs protamine in confluent Swiss 3T3 cells", "type": "cell-based", "settings": "liposome (B198:DOPE 3:2):peptide:DNA 12:0.6:1, final DNA concentration 5.0 μg/l, 1 or 2 h", "from_the_text": "Protamine is a naturally occurring cationic peptide abundant in piscine sperm and is potent in neutralising and condensing DNA. The transfection activity of protamine was compared with that of Mu1 peptide. Mu1 peptide or protamine sulfate (Sigma, grade X from Salmon) was complexed with DNA (pCMVβ) and then cationic liposomes (B 198:DOPE in a ratio of 3:2 m/m) giving a liposome:peptide:DNA ratio of 12:0.6:1 (w/w/w).\nThe transfection activities were examined in Swiss 3T3 cells. The cells were seeded at an approximate density of 2×10^4 per well in a 24-well culture plate in DMEM supplemented with 10% FCS and grown for 48 h to complete confluence in the presence of 5% CO2 at 37° C. Cells were washed by brief exposure to DMEM and then treated with solutions containing LMD or LD complexes, prediluted with DMEM (final DNA concentration 5.0 μg/l in all cases), for 1 or 2 h. Cells were then washed again and incubated for a further 48 h in DMEM supplemented with 10% FCS prior to harvesting. The level of β-galactosidase enzyme activity was determined with a standard assay kit (Promega)."}}, "data": [{"substance": "H-MRRAHHRRRRASHRRMRGG-OH [Mu1]", "values": [{"measurement": "number of positive cells (FIG. 6)", "setting": "[1]; all three differentiation media, Mu1 plus DC-Chol/DOPE vs DC-Chol/DOPE alone", "value": "increased the number of positive cells"}, {"measurement": "increased efficiency by inclusion of Mu1", "setting": "[1]; differentiated by cAMP alone", "value": "greater than 6 fold"}, {"measurement": "increased efficiency by inclusion of Mu1", "setting": "[1]; differentiated by serum withdrawal", "value": "greater than 10 fold"}, {"measurement": "increased efficiency by inclusion of Mu1", "setting": "[1]; low serum/cAMP/NGF", "value": "greater than 6 fold"}, {"measurement": "number of X-Gal positive cells (FIG. 3)", "setting": "[2]; 1/12/6 vs pCMVβ with DC-Chol/DOPE 1/3, 48 h", "value": "significantly enhanced the number of X-Gal positive cells"}, {"measurement": "increase in the number of β galactosidase positive cells", "setting": "[2]; 1:12:6 pCMVβ:Mu1:DC-Chol/DOPE", "value": 6, "unit": "fold"}, {"measurement": "cell loss", "setting": "[2]; Mu1 complex, any of the concentrations utilized", "value": "No obvious cell loss"}, {"measurement": "transfection compared with complexes comprising protamine", "setting": "[3]", "value": "better transfection"}]}]}
